Measurements as given in BindingDB's records for doi:10.1021/jm0701019 (Abbott Laboratories, 2007).

Legend:
[1] = molecular target: T1, RAC-alpha serine/threonine-protein kinase [139-480,S378A,S381A,T450D,S473D] (Homo sapiens, UniProt P31749, S378A/S381A/S473D/T450D); experiment: Akt Kinase Assay
T1 construct: 139-480
Method: (§1) The kinase assay uses His-Akt1 and a biotinylated peptide as substrate. The biotinylated peptides were immobilized on streptavidin-coated FLASH plates. After reaction, the 33P-phosphopeptide captured on the FLASH plates was measured with a TopCount Packard Instruments […] (Packard Instruments, Boston, MA).

[2] = molecular target: cAMP-dependent protein kinase catalytic subunit alpha (Bos taurus, UniProt P00517); experiment: PKA/PKC Kinase Assay
Method: as §1, with “purified recombinant enzyme” for “His-Akt1”, “MA). IC50s were calculated using the sigmoidal curve fit with the Assay Explorer software (MDL, Los Angeles, CA).” for “MA).”

T1 sequence (P31749 139-480 S378A/S381A/T450D/S473D): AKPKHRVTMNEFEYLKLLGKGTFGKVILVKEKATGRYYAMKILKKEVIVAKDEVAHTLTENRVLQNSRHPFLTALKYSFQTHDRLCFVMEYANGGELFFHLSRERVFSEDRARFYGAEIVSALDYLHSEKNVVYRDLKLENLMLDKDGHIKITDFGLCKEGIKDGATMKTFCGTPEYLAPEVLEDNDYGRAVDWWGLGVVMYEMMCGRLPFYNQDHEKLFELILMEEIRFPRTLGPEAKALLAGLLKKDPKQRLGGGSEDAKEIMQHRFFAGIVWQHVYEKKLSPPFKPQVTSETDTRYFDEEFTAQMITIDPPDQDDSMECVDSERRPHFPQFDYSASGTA

Row | IC50 [1] | IC50 [2] | SMILES | IC50 ([1]; pH 7.5, 22 °C) | IC50 ([2]; pH 7.5, 22 °C)
1 | – | – | Cc1n[nH]c2ccc(-c3cncc(OC[C@@H](N)Cc4c[nH]c5ccccc45)c3)cc12 [5-{5-[(2S)-2-amino-3-(1H-indol-3-yl)propoxy]pyridin-3-yl}-3-methyl-1H-indazole] | 0.16 nM | 6 nM
2 | 5 nM | 15 nM | Cc1n[nH]c2ccc(-c3cncc(OC[C@@H](N)Cc4ccc(Br)cc4)c3)cc12 [5-{5-[(2S)-2-amino-3-(4-bromophenyl)propoxy]pyridin-3-yl}-3-methyl-1H-indazole] | – | –
3 | – | > 3000 nM | Cc1n[nH]c2ccc(-c3cncc(OC[C@@H](N)Cc4cccc(OCC5CCCCC5)c4)c3)cc12 [5-{5-[(2S)-2-amino-3-[3-(cyclohexylmethoxy)phenyl]propoxy]pyridin-3-yl}-3-methyl-1H-indazole] | – | –
4 | – | – | Cc1n[nH]c2ccc(-c3cncc(OC[C@@H](N)Cc4ccccc4)c3)cc12 [Biochemistry 469551 Compound 11] | – | 16 nM
